Measurements: patent US20030055007A1, “Antimicrobial agents” (priority 2001, published 2003)
≈ marks a conversion by molar mass, not a printed value. Where two headings read alike, the source gives them in different places.

Columns and labels:
MT-4 cells [1] = assay: Cell damage caused by the sample in the AIDS virus microplate test; conditions: for cell damage / cytotoxicity (in words): AIDS virus test
[2] = system: AIDS virus (HIV-1, HIV-2); assay: Complete inhibitory activity against AIDS virus, MT-4 cells, 12-well microplate, 3- and 6-day culture; assay type: cell-based; conditions: for lowest sample concentration (circle-marked well) at which AIDS virus growth was inhibited completely (100%): MT-4 cells, 2-fold dilutions from 1000 μg/ml
[3] = system: Influenza virus A/Hokkaidou/1/96 (H1N1); assay: organism not typed; assay type: cell-based; conditions: for MIC: read-out: Minimum inhibitory concentration (MIC)
E. coli O157 = assay type: cell-based; conditions: 30° C., 17 hours, 1:40 = 2 mg/ml, <40-fold = no complete inhibition at 1:40
[4] = system: Influenza virus B/Hokkaidou/1/97; assay: microbe, parasite or virus in culture; assay type: cell-based; conditions: for MIC: unidentified influenza virus, read-out: Minimum inhibitory concentration (MIC)
K. pneumoniae = assay: Antibacterial activity test (2), dilution on agar culture medium; assay type: cell-based; conditions: 30° C., 17 hours, 1:40 = 2 mg/ml, <40-fold = no complete inhibition at 1:40
S. Enteritidis = assay: as above; assay type: cell-based; conditions: 30° C., 17 hours, 1:40 = 2 mg/ml, <40-fold = no complete inhibition at 1:40
P. aerginos = assay: as above; assay type: cell-based; conditions: 30° C., 17 hours, 1:40 = 2 mg/ml, <40-fold = no complete inhibition at 1:40
[5] = system: Influenza virus A/Hokkaidou/1/97 (H3N2); assay: organism not typed; assay type: cell-based; conditions: for MIC: read-out: Minimum inhibitory concentration (MIC)
B. subtilis = assay: Antibacterial activity test (2), dilution on agar culture medium; assay type: cell-based; conditions: 30° C., 17 hours, 1:40 = 2 mg/ml, <40-fold = no complete inhibition at 1:40
S. aureus = assay: as above; assay type: cell-based; conditions: 30° C., 17 hours, 1:40 = 2 mg/ml, <40-fold = no complete inhibition at 1:40
Description: Aqueous solutions of each specimen (powders) at a concentration of 8% was diluted 1:40 as the specimen stock solution for MIC measurement. The stock solution diluted at a graduation ratio of 1:40 to 1:400 and the stock solution were added to the agar culture medium on which 6 test […] were inoculated, and incubated at 30° C. for 17 hours. Growth inhibition bands were examined on the agar culture medium. The specimen stock solution was prepared by diluting 25 ml of 8% solution with 1000 cc of distilled water(1:40 dilution), which is converted into the amount per 2 mg/ml by solid content.
However, the remaining samples that were indicative of “<40-fold (lower than the 1:40 dilution)” were proven to have a certain degree of inhibitory effects. They are expected to show the complete inhibitory effects against the bacterial growth, by increasing the concentration level. As a consequence, the samples, 5, 6, 11-14 were recognized to have sufficient useful antibacterial activity.

influenza virus = conditions: in vivo, po
MT-4 cells [6] = system: MT-4 cells
[7] = system: influenza virus (H1N1, H3N2, Type B); assay type: cell-based
[8] = oral; cited from earlier work
[9] = H1N1, stock 10 mg/ml, read when virus multiplied to 100 TCID (3-4 days)
[10] = H3N2, stock 10 mg/ml, read when virus multiplied to 100 TCID (3-4 days)
[11] = H1N1, liquid samples, stock 10 μl/ml guaiacol, 2 μl/ml 2,6-dimethoxyphenol

## COc1cc(S(=O)(=O)[O-])ccc1O.COc1cc(S(=O)(=O)[O-])ccc1O.O.[K+].[K+] [guaiacol-4-sulfonate potassium salt 0.5-hydrate, reference compound]
MT-4 cells [1]
  cell damage / cytotoxicity (in words): caused cell damage
[2]; cell-level test
  anti-AIDS virus activity (in words): not to possess effective anti-AIDS virus activity

## COc1cc(C=O)cc(OC)c1O [sample 13, Syringaldehyde]
[3]
  MIC: 3800 µg/mL (≈ 20.9 mM)
E. coli O157
  dilution of 8% solution giving complete growth inhibition: <40-fold
MT-4 cells [1]
  cell damage / cytotoxicity (in words): severe cell damage
[4]
  MIC: 3800 µg/mL (≈ 20.9 mM)
K. pneumoniae
  dilution of 8% solution giving complete growth inhibition: <40-fold
[2]; 6-day culture
  lowest sample concentration (circle-marked well) at which AIDS virus growth was inhibited completely (100%): 3.91 µg/mL
S. Enteritidis
  dilution of 8% solution giving complete growth inhibition: <40 fold
P. aerginos
  dilution of 8% solution giving complete growth inhibition: <40-fold
[5]
  MIC: 1900 µg/mL (≈ 10.4 mM)
B. subtilis
  dilution of 8% solution giving complete growth inhibition: <40-fold
S. aureus
  dilution of 8% solution giving complete growth inhibition: <40-fold

## COc1cc(O)cc(OC)c1 [sample 4, 3,5-dimethoxyphenol]
[3]; [9]
  MIC: 5000 µg/mL (≈ 32.4 mM)
MT-4 cells [1]; 6-day incubation, well number
  well up to which cell damage was observed: 3 (250)
MT-4 cells [1]; ratio of 1:1, anti-viral effect not reduced
  cell damage when 3,4-dimethoxyphenol was added to the sample: only in the first well
[4]; Type B, stock 10 mg/ml, read when virus multiplied to 100 TCID (3-4 days)
  MIC: 3800 µg/mL (≈ 24.6 mM)
[2]; 3-day culture
  lowest sample concentration (circle-marked well) at which AIDS virus growth was inhibited completely (100%): ◯ (125) μg/ml
[2]; 6-day culture
  lowest sample concentration (circle-marked well) at which AIDS virus growth was inhibited completely (100%): ◯ (125) μg/ml
[2]; 6-day culture, listed as 3,5-dimethoxyphenol
  lowest sample concentration (circle-marked well) at which AIDS virus growth was inhibited completely (100%): 125 µg/mL
[5]; [10]
  MIC: 1900 µg/mL (≈ 12.3 mM)

## Lignosulfonic acid sodium salt acetate [sample 6]
Influenza virus
  side effects: not seen
MDCK cells
  cell damage: not seen

## COc1cc(C(O)C(CO)Oc2c(OC)cccc2OC)cc(OC)c1O (stereo not drawn) [SOS, syringylglycerol-β-syringyl ether, reference compound]
[2]; 3rd day of culture
  viral (inhibitory) activity against AIDS virus: 15.6 μl/ml
MT-4 cells [6]
  cell damage: 31.3 μl/ml

## COc1cc(C(O)C(CO)Oc2ccccc2OC)ccc1OCc1ccccc1 (stereo not drawn) [sample 12, 4-benzyloxyguaiacylglycerol-β-guaiacylether]
[3]; [9]
  Minimum inhibitory concentration (MIC): 8.0 mg/mL (≈ 19.5 mM)
E. coli O157
  dilution of 8% solution giving complete growth inhibition: <40-fold
[4]
  Minimum inhibitory concentration (MIC): 2.5 mg/mL (≈ 6.09 mM)
K. pneumoniae
  dilution of 8% solution giving complete growth inhibition: <40-fold
[2]; 6th day of culture
  viral (inhibitory) activity against AIDS virus: 125 μl/ml
S. Enteritidis
  dilution of 8% solution giving complete growth inhibition: <40-fold
P. aerginos
  dilution of 8% solution giving complete growth inhibition: <40-fold
[5]; [10]
  Minimum inhibitory concentration (MIC): 2.5 mg/mL (≈ 6.09 mM)
B. subtilis
  dilution of 8% solution giving complete growth inhibition: <40-fold
S. aureus
  dilution of 8% solution giving complete growth inhibition: <40-fold

## Lignosulfonic acid sodium salt [sample 5]
MDCK cells
  cell damage: not seen

## COc1cccc(OC)c1O [sample 3, 2,6-dimethoxyphenol]
[3]; [11]
  Minimum inhibitory concentration (MIC): > 1.0 μl/ml
[2]; 3-day culture
  lowest sample concentration (circle-marked well) at which AIDS virus growth was inhibited completely (100%): ◯ (31.3) μg/ml
[2]; 6-day culture
  lowest sample concentration (circle-marked well) at which AIDS virus growth was inhibited completely (100%): ◯ (31.3) μg/ml
[7]
  effect against influenza virus (in words): not effective

## COc1ccccc1O [sample 1, Guaiacol]
[3]; [11]
  Minimum inhibitory concentration (MIC): 3.8 μl/ml
MT-4 cells [1]; 3-day incubation
  concentration up to which cell damage was observed: 250 µg/mL
MT-4 cells [1]; 6-day incubation
  concentration up to which cell damage was observed: 250 µg/mL
[4]; Type B, liquid samples, stock 10 μl/ml guaiacol, 2 μl/ml 2,6-dimethoxyphenol
  Minimum inhibitory concentration (MIC): 3.8 μl/ml
[2]; 3-day culture
  lowest sample concentration (circle-marked well) at which AIDS virus growth was inhibited completely (100%): ◯ (31.3) μg/ml
[2]; 3-day culture, listed as guaiacol
  lowest sample concentration (circle-marked well) at which AIDS virus growth was inhibited completely (100%): 31.3 µg/mL
[2]; 6-day culture
  lowest sample concentration (circle-marked well) at which AIDS virus growth was inhibited completely (100%): ◯ (125) μg/ml
[2]; 6-day culture, listed as guaiacol
  lowest sample concentration (circle-marked well) at which AIDS virus growth was inhibited completely (100%): 125 µg/mL
[8]
  toxicity level in a human (ORL-HMN): 43 mg/kg
[5]; H3N2, liquid samples, stock 10 μl/ml guaiacol, 2 μl/ml 2,6-dimethoxyphenol
  Minimum inhibitory concentration (MIC): 1.9 μl/ml
